The source of these data is patent publication US10076519B2 (CYTOKINETICS, INC., priority 2010, dated 2018).

Structures are written as SMILES.

The first assay has as its system rabbit skeletal myofibrils (fast skeletal myofibrils). The assay can be described thus: Activation of fast skeletal myofibrils (PUMA assay, PK/LDH-coupled ATPase at pCa25). Format: biochemical. The note with it: AC1.4 determined according to the procedure of Example 39; reported as class symbols. The essentials:
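Detergent-washed rabbit psoas myofibrils (~90% fast fibres, calcium-regulated) assayed at calcium giving 25% of maximal ATPase rate (pCa25). ADP turnover coupled via pyruvate kinase/lactate dehydrogenase to NADH oxidation, read at 340 nm. Buffer 12 mM PIPES, 2 mM MgCl2, 1 mM DTT, pH 6.8; AC1.4 values derived.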
In the case of `CC(C)(CNc1ccc(-c2ccnc(N)c2)nn1)c1ccc(F)cc1` [[6-(2-amino(4-pyridyl))pyridazin-3-yl][2-(4-fluorophenyl)-2-methylpropyl]amine], the “Mean AC1.4” value was “B (B=1-10 uM)”.
As for `CC(C)(CNc1ccc(-c2cc(C(N)=O)ccn2)nn1)c1ccc(F)cc1` [2-(6-{[2-(4-fluorophenyl)-2-methylpropyl]amino}pyridazin-3-yl)pyridine-4-carboxamide], the “Mean AC1.4” value is “A (A=<1 uM)”.
Same read-out and setting: as for `CC(C)(CNc1ccc(-c2ccc3[nH]nc(N)c3c2)nn1)c1cccc(CN)c1` [[6-(3-amino(1H-indazol-5-yl))pyridazin-3-yl]{2-[3-(aminomethyl)phenyl]-2-methylpropyl}amine], the entry is “C (C=10-20 uM)”.
On the same count and under the same terms, as for `CC(C)(CNc1ccc(-c2ccc3nc(N)[nH]c(=O)c3c2)nn1)c1ccc(F)cc1`, the entry is “A (A=<1 uM)”; as for `O=c1[nH]c2ccc(-c3ccc(NCC4(c5ccc(F)cc5)CC4)nn3)cc2[nH]1`, “A (A=<1 uM)”; as for `CC(C)(C)OC(=O)NCCNc1n[nH]c2ccc(-c3ccc(NCC(C)(C)c4ccc(F)cc4)nn3)cc12` [(tert-butoxy)-N-(2-{[5-(6-{[2-(4-fluorophenyl)-2-methylpropyl]amino}pyridazin-3-yl)(1H-indazol-3-yl)]amino}ethyl)carboxamide], “A (A=<1 uM)”.
Same read-out and setting: the entry for `CC(C)(CNc1ccc(-c2ccc3c(N)n[nH]c3c2)nn1)c1ccc(F)cc1` [[6-(3-amino(1H-indazol-6-yl))pyridazin-3-yl][2-(4-fluorophenyl)-2-methylpropyl]amine] is “A (A=<1 uM)”; for `OCc1ccccc1-c1ccc(NCC2(c3ncccc3F)CCC2)nn1` it is “B (B=1-10 uM)”.
Regarding `CC(C)(C)OC(=O)N(CC(C)(C)c1ncccc1F)c1ccc(-c2ccc3[nH]c(O)nc3c2)nn1` [(tert-butoxy)-N-[2-(3-fluoro(2-pyridyl))-2-methylpropyl]-N-[6-(2-hydroxybenzimidazol-5-yl)pyridazin-3-yl]carboxamide], the “Mean AC1.4” value is on record as “D (D=>20 uM)”.
Regarding `CC(=O)N1CC(CNc2ccc(-c3ccc4[nH]ncc4c3)nn2)(c2ncccc2F)C1` [1-acetyl-3-(3-fluoro(2-pyridyl))-3-{[(6-(1H-indazol-5-yl)pyridazin-3-yl)amino]methyl}azetidine], the “Mean AC1.4” value was “D (D=>20 uM)”.
Same read-out and setting: as for `NC(=O)c1cccc(-c2ccc(NCC3(C(N)=O)CCC3)nn2)c1` [3-(6-{[(carbamoylcyclo-butyl)methyl]amino}pyridazin-3-yl)benzamide], the entry is “D (D=>20 uM)”; as for `CC(C)(CNc1ccc(-c2ccc3oc(=O)[nH]c3c2)nn1)c1ccc(F)cc1`, “B (B=1-10 uM)”.

Staying with this assay, now noted: median AC1.4 class, procedure of Example 39.
As to `NCc1ccc(-c2ccc(NCC3(c4ncccc4F)CCC3)nn2)cc1` [{6-[4-(aminomethyl)phenyl]pyridazin-3-yl}{[(3-fluoro(2-pyridyl))cyclobutyl]methyl}amine], the “Mean AC1.4” value is recorded as “B (B=1-10 uM)”.
For the compound `Fc1cccnc1C1(Nc2ccc(-c3ccccc3)nn2)CCC1` [[(3-fluoro(2-pyridyl))cyclobutyl](6-phenylpyridazin-3-yl)amine], the “Mean AC1.4” value is given as “B (B=1-10 uM)”.
Still for that read-out and setting: the entry for `Fc1cccnc1C1(CNc2ccc(C3CNC3)nn2)CCC1` [(6-azetidin-3-ylpyridazin-3-yl){[(3-fluoro(2-pyridyl))cyclobutyl]methyl}amine] is “D (D=>20 uM)”; for `O=C(O)c1csc2nc(-c3ccc(NCC4(c5ncccc5F)CCC4)nn3)cn12` [6-[6-({[(3-fluoro-2-pyridyl)cyclobutyl]methyl}ami-no)pyridazin-3-yl]imidazo[2,1-b]1,3-thiazoline-3-carboxylic acid] it is “A (A=<1 uM)”; for `Fc1cccnc1C1(CNc2ccc(-c3ccccn3)nn2)CCC1` [{[(3-fluoro(2-pyridyl))cyclobutyl]methyl}(6-(2-pyridyl)pyridazin-3-yl)amine] it is “B (B=1-10 uM)”.
For the compound `Fc1cccnc1C1(CNc2ccc(-c3nc4c(s3)CNC4)nn2)CCC1` [{[(3-fluoro(2-pyridyl))cyclobutyl]methyl}(6-(3-pyrrolino[3,4-d]1,3-thiazol-2-yl)pyridazin-3-yl)amine], the “Mean AC1.4” value was “D (D=>20 uM)”.
On the same count and under the same terms, as for `CC(C)(C)[S+]([O-])NCc1cnc(-c2ccc(NCC3(c4ncccc4F)CCC3)nn2)s1` (stereo not shown) [N-((2-(6-((1-(3-fluoropyridin-2-yl)cyclobutyl)methylamino)pyr-idazin-3-yl)thiazol-5-yl)methyl)-2-methylpropane-2-sulfinamide], the entry is “B (B=1-10 uM)”.
Take `O=C(NCc1cnc(-c2ccc(NCC3(c4ncccc4F)CCC3)nn2)s1)C1(NCc2ccccc2)COC1` [N-({2-[6-({[(3-fluoro(2-pyridyl))cyclobutyl]methyl}ami-no)pyridazin-3-yl](1,3-thiazol-5-yl)}methyl){3-[benzylamino]oxetan-3-yl}carboxamide]: the “Mean AC1.4” value is given as “A (A=<1 uM)”.
Same read-out and setting: the entry for `C[C@@H](N)C(=O)NCc1cnc(-c2ccc(NCC3(c4ncccc4F)CCC3)nn2)s1` [(2R)-2-amino-N-({2-[6-({[(3-fluoro(2-pyridyl))cyclobutyl]methyl}ami-no)pyridazin-3-yl](1,3-thiazol-5-yl)}methyl)propanamide] is “A (A=<1 uM)”.
Regarding `CN(CC1(c2ccccn2)CCC1)c1ccc(-c2cccc(C(N)=O)c2)nn1` [3-(6-{methyl[(2-pyridylcyclobutyl)methyl]ami-no}pyridazin-3-yl)benzamide], the “Mean AC1.4” value is listed as “D (D=>20 uM)”.
Regarding `Nc1n[nH]c2ccc(-c3ccc(NC[C@]4(c5ncccc5F)C[C@H](F)C4)nn3)cc12` [[6-(3-amino(1H-indazol-5-yl))pyridazin-3-yl]{[3-fluoro-1-(3-fluoro(2-pyridyl))cyclobutyl]methyl}amine], the “Mean AC1.4” value was “A (A=<1 uM)”.
Take `Nc1n[nH]c2ccc(-c3ccc(NC4(c5ncccc5F)CCC4)nn3)cc12` [[6-(3-amino(1H-indazol-5-yl))pyridazin-3-yl][(3-fluoro(2-pyridyl))cyclobutyl]amine]: the “Mean AC1.4” value was “B (B=1-10 uM)”.

Staying with this assay, now noted: median AC1.4 reported as class; procedure of Example 39.
Turning to `OCc1cccc(-c2ccc(NC[C@]3(c4ncccc4F)C[C@H](F)C3)nn2)c1` [{3-[6-({[3-fluoro-1-(3-fluoro(2-pyridyl))cyclobutyl]methyl}ami-no)pyridazin-3-yl]phenyl}methan-1-ol], the “Mean AC1.4” value is on record as “B (B=1-10 uM)”.
As to `C[C@H](N)C(=O)N[C@@H](C)C(=O)OCC(=O)NCc1cnc(-c2ccc(NCC3(c4ncccc4F)CCC3)nn2)s1` [[N-({2-[6-({[(3-fluoro-2-pyridyl)cyclobutyl]methyl}ami-no)pyridazin-3-yl]-1,3-thiazol-5-yl}methyl)carbamoyl]methyl (2S)-2-((2S)-2-aminopropanoylamino)propanoate], the “Mean AC1.4” value is given as “A (A=<1 uM)”.
The same measure, in the same setting: the entry for `COC(=O)Cc1ccc(F)c(-c2ccc(NCC3(c4ncccc4F)CCC3)nn2)c1` [methyl 2-{4-fluoro-3-[6-({[(3-fluoro(2-pyridyl))cyclobutyl]methyl}ami-no)pyridazin-3-yl]phenyl}acetate] is “B (B=1-10 uM)”; for `NC(=O)c1cc(N)cc(-c2ccc(NC[C@]3(c4ncccc4F)C[C@H](F)C3)nn2)c1` [5-amino-3-[6-({[3-fluoro-1-(3-fluoro(2-pyridyl))cyclobutyl]methyl}ami-no)pyridazin-3-yl]benzamide] it is “B (B=1-10 uM)”.
